The text below walks through data of patent publication US11884682B2, “Compounds and their uses as MIF inhibitors” (NANJING IMMUNOPHAGE BIOTECH CO., LTD., priority 2020, dated 2024).

This test deals with MIF (Homo sapiens (Human), UniProt P14174). Put plainly: MIF tautomerase assay using pHPP as substrate. The following applies: cell-free, pHPP substrate 1.5 mM, MIF 3 nM; mean pIC50 of multiple test results. In kind it is biochemical. The method, then: Tautomerase Assay Using pHPP as substrate
This assay measured MIF's tautomerase activity in a cell-free system and was based on the determination of initial rates of the MIF-catalyzed conversion of the ketonic into the enolic tautomer of pHPP. This was achieved by spectrophotometric quantification of the complex between borate and the product of the reaction (enolic pHPP). The substrate was prepared by conversion of the enolic pHPP into its ketonic form. To achieve this, 0.5 M pHPP in methanol was diluted 10-fold with 50 mM sodium acetate buffer at pH 6.0, and then the suspension was shaken for 24 h at room temperature in darkness, and finally stored at 4° C. for not more than 1 week, with 5 min sonication being recommended before use.
Assays were performed in small-volume clear-bottom black 96 or 384-well polystyrene plates (Greiner Bio-One). First, 2 μL of the enzyme solution containing 6 nM of MIF in DPBS, 0.025% w/v BSA, and 300 μM CHAPS was dispensed onto sample and negative control wells using Multidrop Combi with metallic tip cassettes (Thermo Fisher Scientific) previously treated with Sigmacote. Then, 2 μL of the same buffer without MIF was dispensed onto positive control wells. The reaction was started by addition of the following to all wells: 2 μL of substrate solution containing 3 mM ketonic pHPP in 200 mM boric acid, 25 mM sodium phosphate, 0.025% w/v BSA, and 300 μM CHAPS at pH 6.0. In order to remove bubbles, the plate was centrifuged in an Allegra 25R centrifuge (Beckman Coulter, Inc., Brea, CA) at 1000 rpm for 2 min at room temperature. Then, the plate was read in an EnVision. Final concentrations of enzyme and substrate were 3 nM and 1.5 mM, respectively. Initial rates were calculated for each well as the slope of the absorbance progress curve.
The data mentioned below represents a mean pIC50 value of multiple test results. It is understood that the data illustrated below may have reasonable variation depending on the specific conditions and procedures used by the person conducting the testing.

Where only a bound is given, the exact number is not on record here.

MIF, sequence (P14174 2-115): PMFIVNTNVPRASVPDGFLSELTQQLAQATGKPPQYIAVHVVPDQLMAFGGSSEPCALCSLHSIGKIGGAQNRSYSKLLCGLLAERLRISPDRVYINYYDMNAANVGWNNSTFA

Turning to `COc1ncccc1C(=O)NCc1nnc(-c2cccs2)o1` [Compound 48, 2-methoxy-N-((5-(thiophen-2-yl)-1,3,4-oxadiazol-2-yl)methyl)nicotinamide], the “Tautomerase Inhibition pIC50” value was below 5. For `O=C(NCc1nnc(-c2cccs2)o1)C1CCCCC1` [Compound 49, N-((5-(thiophen-2-yl)-1,3,4-oxadiazol-2-yl)methyl)cyclohexanecarboxamide], the “Tautomerase Inhibition pIC50” value was below 5. The figure for `CN1CCC(C(=O)NCc2nnc(-c3cccs3)o2)CC1` [Compound 50, 1-methyl-N-((5-(thiophen-2-yl)-1,3,4-oxadiazol-2-yl)methyl)piperidine-4-carboxamide] is below 5; for `CCN(Cc1nnc(-c2cccs2)o1)C(=O)c1ccc(N2CCOCC2)cc1OC` [Compound 53, N-ethyl-2-methoxy-4-morpholino-N-((5-(thiophen-2-yl)-1,3,4-oxadiazol-2-yl)methyl)benzamide] it is below 5; for `COc1c(C(=O)NCc2nnc(-c3cccs3)o2)cccc1N1CCOCC1` [Compound 54, 2-methoxy-3-morpholino-N-((5-(thiophen-2-yl)-1,3,4-oxadiazol-2-yl)methyl)benzamide] it is below 5.

In the case of `COc1cc(N2CC(C)OC(C)C2)ccc1C(=O)NCc1nnc(-c2cccs2)o1` (stereo not drawn) [Compound 55, 4-(2,6-dimethylmorpholino)-2-methoxy-N-((5-(thiophen-2-yl)-1,3,4-oxadiazol-2-yl)methyl)benzamide], the “Tautomerase Inhibition pIC50” value was 6.22. Turning to `COc1cc(N2CC3CC(C2)O3)ccc1C(=O)NCc1nnc(-c2cccs2)o1` [Compound 57, 4-(6-oxa-3-azabicyclo[3.1.1]heptan-3-yl)-2-methoxy-N-((5-(thiophen-2-yl)-1,3,4-oxadiazol-2-yl)methyl)benzamide], the “Tautomerase Inhibition pIC50” value is 6.29.

With `COc1cc(N2CCOCC2)ccc1C(=O)NCc1nnc(-c2ccns2)o1` [Compound 61, N-((5-(isothiazol-5-yl)-1,3,4-oxadiazol-2-yl)methyl)-2-methoxy-4-morpholinobenzamide], the “Tautomerase Inhibition pIC50” value is on record as below 5. As to `COc1cc(N2CCOCC2)ccc1C(=O)NCc1nnc(-c2nccs2)o1` [Compound 62, 2-methoxy-4-morpholino-N-((5-(thiazol-2-yl)-1,3,4-oxadiazol-2-yl)methyl)benzamide], the “Tautomerase Inhibition pIC50” value is listed as below 5. Consider `COc1cc(N2CCOCC2)ccc1C(=O)NCc1nnc(-c2ccc(Cl)s2)o1` [Compound 64, N-((5-(5-chlorothiophen-2-yl)-1,3,4-oxadiazol-2-yl)methyl)-2-methoxy-4-morpholinobenzamide], for which the “Tautomerase Inhibition pIC50” value was found to be 4.79. The figure for `COc1cc(N2CCOCC2)ccc1C(=O)NC(C)(C)c1nnc(-c2cccs2)o1` [Compound 65, 2-methoxy-4-morpholino-N-(2-(5-(thiophen-2-yl)-1,3,4-oxadiazol-2-yl)propan-2-yl)benzamide] is below 5; for `COc1cc(N2CCOCC2)ccc1C(=O)NC1(c2nnc(-c3cccs3)o2)CC1` [Compound 66, 2-methoxy-4-morpholino-N-(1-(5-(thiophen-2-yl)-1,3,4-oxadiazol-2-yl)cyclopropyl)benzamide] it is below 5; for `COc1cc(N2CCOCC2)ccc1C(=O)N(C)C(C)(C)c1nnc(-c2cccs2)o1` [Compound 68, 2-methoxy-N-methyl-4-morpholino-N-(2-(5-(thiophen-2-yl)-1,3,4-oxadiazol-2-yl)propan-2-yl)benzamide] it is 3.23.

Turning to `COc1cc(OCCO)ccc1C(=O)NCc1nnc(-c2cccs2)o1` [Compound 70, 4-(2-hydroxyethoxy)-2-methoxy-N-((5-(thiophen-2-yl)-1,3,4-oxadiazol-2-yl)methyl)benzamide], the “Tautomerase Inhibition pIC50” value is 6.12. The figure for `COCCOc1ccc(C(=O)NCc2nnc(-c3cccs3)o2)c(OC)c1` [Compound 71, 2-methoxy-4-(2-methoxyethoxy)-N-((5-(thiophen-2-yl)-1,3,4-oxadiazol-2-yl)methyl)benzamide] is 6.21.
